# System: CNGA2 ion channel
# Assay: Experiments with skatole on direct activation of the CNGA2 ion channel
# Type: cell-based, human
# Conditions: CNGA2 ion channel of all odor receptor cells, in addition to specific odor receptors
smiles,measurement,value
"Cc1c[nH]c2ccccc12 [skatole, 3-methylindole]",Activation of the CNGA2 ion channel,directly activates
